Measurements taken from patent US20190358288A1, “COMPOSITIONS AND METHODS FOR TREATING OR PREVENTING ENVIRONMENTAL ENTEROPATHY” (INNOVATE BIOPHARMACEUTICALS, INC., priority 2017, published 2019).
Where no end group is shown, it is not given here.

Tested on: T84 monolayers
Text: T84 cells are a human colonic epithelial cell line that differentiates and creates tight junctions. T84 cells are a model for colonic inflammation.

GGVLVQPG (SEQ ID NO:1) [Larazotide]
concentration dependence of the effect of protecting T84 monolayers from disruption by Streptococcus KS47 (FIG. 3): concentration dependent
protection of T84 monolayers from disruption by Shigella (T84 human colonic epithelial cell line, FIG. 1): does not protect
